Reference: paper PMC5473904, “Epigenetic and antitumor effects of platinum(IV)-octanoato conjugates” (Scientific Reports, 2017)

How the values were obtained:
[1] = test system: HSF human primary skin fibroblasts; test: MTT cytotoxicity, 72 h; type: cell-based; settings: platinum complexes
[2] = test system: LNCaP human prostate adenocarcinoma cells; test: MTT cytotoxicity, 72 h; type: cell-based; settings: platinum complexes
[3] = test system: MRC-5 (PD30) human fetal lung fibroblasts; test: MTT cytotoxicity, 72 h; type: cell-based; settings: platinum complexes
[4] = test system: Lewis lung carcinoma (LLC); test: In vivo antitumor activity in Lewis lung carcinoma; settings: LLC in C57BL mice; for Average tumor weight (mean ± SD): 20 mg kg^−1 daily orally day 7–14, day 15; for Inhibition of tumor growth: 20 mg kg^−1 daily orally day 7–14, day 15, referred to control animals
Procedure: Xenograft LLC tumors were grown in C57BL mice that were subsequently treated with […] of either Pt(IV) complex. Pt(IV) prodrugs were administered by oral gavage by taking advantage of their excellent stability, enabling in vivo oral formulation making platinum therapy safer lessening side effects and partially overcoming resistance to platinum(II) drugs, [35]. The schedule of Pt(IV) prodrug administration in vivo was initially determined by assessing the total dose that could be injected without undue toxicity in nontumor-bearing C57BL mice. From day 7 after tumor inoculation, when tumors became visible, tumor-bearing mice received daily doses of the Pt(IV) derivatives (20 mg kg^−1, by oral gavage).
The LLC cell line was purchased from ECACC, United Kingdom. The LLC cell line was maintained in DMEM (Euroclone) supplemented with 10% heat-inactivated fetal bovine serum (FBS; Euroclone), 10 mM L-glutamine, 100 U mL^−1 penicillin, and 100 μg mL^−1 streptomycin in a 5% CO2 air incubator at 37 °C. The LLC was implanted intramuscularly (im) as a 2 × 10^6 cell inoculum into the right hind leg of 8-week old male and female C57BL mice (24 ± 3 g body weight). […] At day 15, animals were sacrificed, the legs were amputated at the proximal end of the femur, and the inhibition of tumor growth was determined according to the difference in weight of the tumor-bearing leg, and the healthy leg of the animals expressed as a percentage referred to the control animals. Body weight was measured every two days and was taken as a parameter for systemic toxicity. All the values are the means ± SD of not less than three measurements.

[5] = Biodistribution of platinum after oral administration (ICP-MS); type: in vivo, C57BL mice; settings: LLC-bearing mice; for Percentage of the administered drug reaching the tumor mass / Tissue platinum distribution: single oral dose 20 mg kg-1, 4 h; for Platinum concentration in blood: whole blood, single oral dose 20 mg kg-1, 1 and 4 h
Description: It was previously shown for a similar series of dicarboxylato Pt(IV) compounds that organic chains of intermediate length offer the best compromise between lipophilicity and water solubility for oral administration. […] The details of these experiments and their results are described in the Supplementary material and Supplementary Fig. S2. […] In contrast, platinum scarcely accumulated in intestine and lung. Noteworthy, a slightly higher platinum content was found in the tumor mass in the mice treated with Pt(IV)diOA than in those treated with Pt(IV)diVPA. […]
Biodistribution after oral administration
For Pt(IV) complexes having axial carboxylato ligands, the lipophilicity increases as the number of carbon atoms in the chain increases. This lipophilicity increase offers a beneficial effect on the cellular accumulation and in vitro cytotoxic potency up to a point where the drop in water solubility impedes the administration of the drugs (around C8-C10 carbon chains)1,2.
Moreover, excessive lipophilicity can hinder transport of such Pt(IV) derivatives in vivo across intestinal epithelial cells making them more vulnerable to hepatic metabolism.
It was previously shown for a similar series of dicarboxylato Pt(IV) compounds (except the VPA-derivative) that organic chains of intermediate length offer the best compromise between lipophilicity and water solubility for oral administration3. To better understand the biodistribution properties of the Pt(IV) complexes, following administered by oral gavage in a -1 single dose (20 mg kg ), tissue samples collected from LLC-bearing mice were analyzed by ICP-MS. After 1 and 4 h, blood samples were collected and subsequently animals were sacrificed, and tissue samples were collected. The platinum levels in tumor, kidney, liver, intestine, lung and whole blood aliquots are shown in Fig. S2, panels A and B. It is important to recall that using this protocol it is possible to estimate only the overall Pt content and not its oxidation state or speciation [i.e. Pt(IV) metabolites or Pt(II) metabolites produced by reduction and further interactions]. […]
Biodistribution after oral administration. For in vivo kinetic experiments, 8-10 week old C57BL mice (24 ± 3 g body weight) received the drugs as an oral gavage single dose of -1 butanoato, hexanoato, octanoato and valproate Pt(IV) complexes (20 mg kg , dissolved in a vehicle solution composed of 20% Cremophor EL (v/v), 20% PEG400 (v/v) and 60% saline solution (v/v)). At each time point (1 and 4 h, respectively), animals were anesthetized, and blood was collected by a vain tail puncture. In addition, samples of organs (kidney, liver, lung and intestine) and tumor were collected at 4 h and stored at −20 °C. Blood, organ samples and tumor were subjected to quantitative determination of platinum content.−1 The samples were treated with highly pure nitric acid ([Pt] ≤ 0.01 μg kg TraceSELECT Ultra, Sigma Chemical Co.) and transferred into a microwave Teflon vessel. Subsequently, samples were submitted to the standard procedure using a speed microwave. After cooling, each mineralized sample was analyzed for platinum by ICP-MS (ThermoOptek X Series 2). Instrumental settings were optimized to achieve maximum sensitivity for platinum. For quantitative determination, the most abundant isotopes of platinum and indium (used as internal standard) were measured at m/z 195 and 115, respectively.
Accumulation of platinum in tumor cells treated with Pt(IV) complexes and cisplatin (in cellulo experiments) in the absence of serum. A2780 cells were seeded in 10 mm Petri dishes and treated with the platinum complexes (10 μM) for 4 h in complete medium, i.e. + 10 % FBS (HyClone, GE Healthcare). At time zero, 100 μL of medium was taken out from each sample to check the extracellular Pt concentration. At the end of the exposure, cells were washed three times with phosphate-buffered saline (PBS), detached from the Petri dishes using 0.05% Trypsin 1X + 2% EDTA (HyClone, GE Healthcare) and harvested in fresh […]

## CCCCCCCC(=O)[O][Pt]([NH2])([NH2])([Cl])([Cl])[O]C(=O)CCCCCCC [Pt(IV)diOA, cis, cis, trans-[Pt(IV)(NH3)2Cl2(OA)2]]
[1]
  IC50: 0.077 ± 0.001 µM
[2]
  IC50: 0.052 ± 0.005 µM
[3]
  IC50: 0.052 ± 0.003 µM
[4]
  Average tumor weight (mean ± SD): 0.025 ± 0.03 g
  Inhibition of tumor growth: 95%
[5]
  Percentage of the administered drug reaching the tumor mass: about 18%
  Tissue platinum distribution: the highest platinum concentrations were found in liver followed by tumor tissue and kidney
  Platinum concentration in blood: around 0.5 μg Pt mL^−1

## CCCC(CCC)C(=O)[O][Pt]([NH2])([NH2])([Cl])([Cl])[O]C(=O)C(CCC)CCC [Pt(IV)diVPA, cis, cis, trans-[Pt(IV)(NH3)2Cl2(VPA)2]]
[4]
  Average tumor weight (mean ± SD): 0.174 ± 0.08 g
  Inhibition of tumor growth: 68%
[5]
  Percentage of the administered drug reaching the tumor mass: ~10%
  Tissue platinum distribution: the highest platinum concentrations were found in liver followed by tumor tissue and kidney
  Platinum concentration in blood: around 0.5 μg Pt mL^−1

## N.N.[Cl][Pt][Cl] [cisplatin, reference compound]
[1]
  IC50: 69 ± 0.87 µM
[2]
  IC50: 8.54 ± 1.78 µM
[3]
  IC50: 10.6 ± 0.38 µM
